The values below are quoted from earlier work in patent US8313770B2, “Modifying drug release in suspensions of ionic resin systems” (NEOS Therapeutics, LP, priority 2007, dated 2012).

SMILES strings stand for the structures.

Turning to `COc1ccccc1OCC(O)CO` (stereo not shown) [Guaifenesin, 3(2-methoxyphenoxy)-1,2-propanediol], the “Solubility in water and alcohol” value was “soluble”.
